Results on 20 molecules are retold here after US7223751B2, “Sulfonamide derivatives, intermediate thereof, its preparation methods, and pharmaceutical composition comprising the same” (Kolon Ind. Inc., priority 2001, dated 2007).

The target in test [1] is T1, MMP-1 (Homo sapiens, UniProt P03956).
T1 sequence (P03956 100-469): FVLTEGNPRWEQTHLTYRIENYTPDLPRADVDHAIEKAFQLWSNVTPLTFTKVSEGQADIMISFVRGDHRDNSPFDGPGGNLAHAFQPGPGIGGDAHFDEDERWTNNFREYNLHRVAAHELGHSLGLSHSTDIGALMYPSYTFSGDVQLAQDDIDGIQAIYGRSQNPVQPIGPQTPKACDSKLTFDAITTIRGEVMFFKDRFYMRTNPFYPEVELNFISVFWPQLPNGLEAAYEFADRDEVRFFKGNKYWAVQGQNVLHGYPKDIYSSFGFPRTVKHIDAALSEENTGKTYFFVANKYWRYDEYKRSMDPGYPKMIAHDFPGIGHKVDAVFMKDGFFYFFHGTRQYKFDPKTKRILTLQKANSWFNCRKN
As to the kind of experiment: MMP inhibiting activity, fluorescence assay. In kind it is biochemical. Particulars: read-out: Enzyme inhibiting constant IC50 MMP-1. The protocol: (§1) Inhibitory activities of all the enzymes were measured similarly to the MMP-2 activity measuring method shown below. Prior to measuring, proMMP-2 was treated with 1 mM p-aminophenyl mercuricacetate at 37° C. for 45 minutes to activate it. The ProMMP-9 was activated to an enzyme with MMP-3, and stored at −80° C. until used.
(§2) MMP activities were measured by fluorescence assay by changing a microtiter plate formate according to the reported method (Knight, C. G., Willenbrock, F., Murphy, G. A., FEBS Lett. 1992, 296, 263-266). On a dynatech MicroFLUOR plate, a buffer solution comprising 50 Mm Tris-HCl pH 7.5, 10 mM CaCl2, 0.15 M NaCl, 0.05% Brij, and 1-8 μM of a substrate (Mca-Pro-Leu-Gly-Leu-Dpa-Ala-Arg-NH2), and various concentrations of inhibitors were introduced, and it was reacted with activated enzymes at 37° C. for 20-30 minutes. Reaction was terminated by putting the reactant in 50 mM EDTA, and then fluorescence was measured with a spectrofluorometer attached to a microplate reader (λex 328 nm, λ em 393 nm). The inhibiting activity degree was indicated by an IC50 value, which is a concentration inhibiting activity by 50% compared to the control.

Test [2] addresses MMP-13 (Homo sapiens, UniProt P45452). The test is described as follows: MMP inhibiting activity, fluorescence assay. The format is biochemical. Particulars: read-out: Enzyme inhibiting constant IC50 MMP-13. Here is the method: as §1, §2
Test [3] addresses T2, MMP-2 (Homo sapiens, UniProt P08253).
T2 sequence (P08253 110-660): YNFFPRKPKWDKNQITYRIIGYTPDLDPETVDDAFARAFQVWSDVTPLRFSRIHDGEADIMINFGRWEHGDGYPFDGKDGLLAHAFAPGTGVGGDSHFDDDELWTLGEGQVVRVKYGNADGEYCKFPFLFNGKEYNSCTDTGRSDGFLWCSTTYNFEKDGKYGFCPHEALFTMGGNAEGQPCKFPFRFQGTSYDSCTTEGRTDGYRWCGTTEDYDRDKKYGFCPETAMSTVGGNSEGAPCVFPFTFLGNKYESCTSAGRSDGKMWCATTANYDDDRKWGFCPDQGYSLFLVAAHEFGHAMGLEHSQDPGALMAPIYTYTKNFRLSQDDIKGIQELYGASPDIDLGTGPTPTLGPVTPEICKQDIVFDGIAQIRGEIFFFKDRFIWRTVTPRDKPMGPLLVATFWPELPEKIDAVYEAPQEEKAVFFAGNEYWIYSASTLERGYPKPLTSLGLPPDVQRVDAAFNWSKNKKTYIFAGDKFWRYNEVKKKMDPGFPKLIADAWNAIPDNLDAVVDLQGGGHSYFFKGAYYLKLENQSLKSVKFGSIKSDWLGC
The test is described as follows: MMP inhibiting activity, fluorescence assay. The format is biochemical. Particulars: read-out: Enzyme inhibiting constant IC50 MMP-2. Here is the method:
as §1, §2

The test system of test [4] is HUVEC (human umbilical vein endothelial cell) cells. The test is described as follows: Tube formation activity on matrigel. The format is cell-based. Set-up: key: −: control; ±: tube almost resembles control; +: inhibition; ++: significant inhibition; +++: complete inhibition. Particulars: 16-24 hours. The protocol: In a culture flask previously coated with gelatin, HUVEC (human umbilical vein endothelial cell) cells cultured with a M199 medium (containing 20% FBS, 3 ng/ml bFGF, 100 μg/ml heparin) were treated with trypsin/EDTA, and then number of cells are counted so that number of cells may be 2×10^4 cells/well in a 96-well plate previously coated with matrigel. Samples were then added and cultured in a CO2 culture medium at 37° C. for 16-24 hours.

A word on the IC50: it is the midpoint of a concentration-inhibition curve. As to `CCCCCCN1CC(C(=O)O)N(S(=O)(=O)c2ccc(-c3ccc(Br)cc3)cc2)CC1=O` (centres unmarked) [Example 45, 1-(4′-Bromo-biphenyl-4-sulfonyl)-4-hexyl-5-oxo-piperazine-2-carboxylic acid], the figures for the half-maximal inhibitory concentration (IC50) in test [1], in test [2] and in test [3] were 0.095 µM, 0.082 µM and 0.011 µM, respectively. The “Tube Formation” value in test [4] (concentration 0.5 μM), in test [4] (concentration 5 μM) and in test [4] (concentration 50 μM) was “++” throughout.

Consider `CCCCN1CC(C(=O)O)N(S(=O)(=O)c2ccc(OC)cc2)CC1=O` (centres unmarked) [Example 26, 4-Butyl-1-(4-methoxy-benzenesulfonyl)-5-oxo-piperazine-2-carboxylic acid], for which the “Tube Formation” value in test [4] (concentration 5 μM) is listed as “±”; in test [4] (concentration 50 μM), “+”; in test [4] (concentration 100 μM) it was “++”.

On to `C#CCN1CC(C(=O)O)N(S(=O)(=O)c2ccc(-c3ccc(Br)cc3)cc2)CC1=O` (centres unmarked) [Example 35, 1-(4′-Bromo-biphenyl-4-sulfonyl)-5-oxo-4-prop-2-ynyl-piperazine-2-carboxylic acid], for which the entries for the “Tube Formation” value in test [4] (concentration 0.5 μM), in test [4] (concentration 5 μM) and in test [4] (concentration 50 μM) were “++”, “++” and “+++”, respectively.

Turning to `CCCCCCCCCCCCN1CC(C(=O)O)N(S(=O)(=O)c2ccc(-c3ccc(Br)cc3)cc2)CC1=O` (centres unmarked) [Example 39, 1-(4′-Bromo-biphenyl-4-sulfonyl)-4-dodecyl-5-oxo-piperazine-2-carboxylic acid], the IC50 in test [1] was found to be 8.27 µM; in test [2], 2.35 µM; in test [3], 0.567 µM. In addition, the “Tube Formation” value in test [4] (concentration 0.5 μM) is recorded as “−”; in test [4] (concentration 5 μM), “−”; in test [4] (concentration 50 μM), “+”.

Turning to `CCCCCCCCN1CC(C(=O)O)N(S(=O)(=O)c2ccc(-n3cccc3)cc2)CC1=O` (centres unmarked) [Example 58, 4-Octyl-5-oxo-1-(4-pyrrol-1-yl-benzenesulfonyl)-piperazine-2-carboxylic acid], the “Tube Formation” value in test [4] (concentration 0.5 μM) is listed as “±”; in test [4] (concentration 5 μM), “++”; in test [4] (concentration 50 μM), “++”.

As for `O=C(O)C1CN(CCCCCCO)C(=O)CN1S(=O)(=O)c1ccc(-c2ccc(Br)cc2)cc1` (centres unmarked) [Example 51, 1-(4′-Bromo-biphenyl-4-sulfonyl)-4-(6-hydroxy-hexyl)-5-oxo-piperazine-2-carboxylic acid], the IC50 was 0.029 µM in test [1], 0.019 µM in test [2] and 0.005 µM in test [3].

Consider `CCCCCCCCN1CC(C(=O)O)N(S(=O)(=O)c2ccc(-c3ccc(Br)cc3)cc2)CC1=O` (centres unmarked) [Example 33, 1-(4′-Bromo-biphenyl-4-sulfonyl)-4-octyl-5-oxo-piperazine-2-carboxylic acid], for which the figures for the IC50 in test [1], in test [2] and in test [3] were 2.43 µM, 2.1 µM and 0.08 µM, respectively. The “Tube Formation” value in test [4] (concentration 5 μM) is “+”; in test [4] (concentration 50 μM), “++”; in test [4] (concentration 100 μM), “+++”.

In the case of `CCCCCCCCC=CCCCCCCCCN1CC(C(=O)O)N(S(=O)(=O)c2ccc(-c3ccc(Br)cc3)cc2)CC1=O` (centres unmarked) [Example 53, 1-(4′-Bromo-biphenyl-4-sulfonyl)-4-octadec-9-enyl-5-oxo-piperazine-2-carboxylic acid], the IC50 in test [1] was > 10 µM; in test [2], > 10 µM; in test [3], 0.22 µM.

On to `COc1ccc(S(=O)(=O)N2CC(=O)N(Cc3ccccn3)CC2C(=O)NO)cc1.Cl` (centres unmarked) [Example 13, 1-(4-Methoxy-benzenesulfonyl)-5-oxo-4-pyridin-2-yl-methyl-piperazine-2-hydroxamate hydrochloride], for which the “Tube Formation” value in test [4] (concentration 5 μM) was “±”; in test [4] (concentration 50 μM), “+”; in test [4] (concentration 100 μM), “+”.

“1-(4-Methoxy-benzenesulfonyl)-4-methyl-5-oxo-piperazine-2-hydroxamate [Example 25]”: the IC50 is 0.082 µM in test [1], 0.016 µM in test [2] and 0.003 µM in test [3]. Further, the “Tube Formation” value is reported as “−” in test [4] (concentration 5 μM), “−” in test [4] (concentration 50 μM) and “+” in test [4] (concentration 100 μM).

Consider `CCCCOCCCN1CC(C(=O)O)N(S(=O)(=O)c2ccc(-c3ccc(Br)cc3)cc2)CC1=O` (centres unmarked) [Example 41, 1-(4′-Bromo-biphenyl-4-sulfonyl)-4-(3-butoxy-propyl)-5-oxo-piperazine-2-carboxylic acid], for which the “Tube Formation” value is reported as “++” in test [4] (concentration 0.5 μM), “++” in test [4] (concentration 5 μM) and “+++” in test [4] (concentration 50 μM).

With `CCCCCCCCCCN1CC(C(=O)O)N(S(=O)(=O)c2ccc(-c3ccc(Br)cc3)cc2)CC1=O` (centres unmarked) [Example 47, 1-(4′-Bromo-biphenyl-4-sulfonyl)-4-decyl-5-oxo-piperazine-2-carboxylic acid], the figures for the IC50 in test [1], in test [2] and in test [3] were 5.4 µM, 2.46 µM and 0.14 µM, respectively. Moreover, the “Tube Formation” value is given as “++” in test [4] (concentration 0.5 μM), “++” in test [4] (concentration 5 μM) and “+++” in test [4] (concentration 50 μM).

Take `COc1ccc(S(=O)(=O)N2CC(=O)N(CCN3CCOCC3)CC2C(=O)NO)cc1.Cl` (centres unmarked) [Example 11, 1-(4-Methoxy-benzenesulfonyl)-4-(2-morpholin-4-yl-ethyl)-5-oxo-piperazine-2-hydroxamate hydrochloride]: the “Tube Formation” value was “±” in test [4] (concentration 5 μM) and “+” in test [4] (concentration 50 μM).

As for “1-Cyclopropyl-5-hydroxymethyl-4-(4-methoxy-benzenesulfonyl)-5-oxo-piperazin-2-one [Example 27]”, the “Tube Formation” value in test [4] (concentration 5 μM) and in test [4] (concentration 50 μM) was “++” each time.

On to “4-Cyclopropyl-1-(4-methoxy-benzenesulfonyl)-5-oxo-piperazine-2-hydroxamate [Example 17]”, for which the “Tube Formation” value in test [4] (concentration 5 μM) was “+”; in test [4] (concentration 50 μM) it was “+”; in test [4] (concentration 100 μM), “++”.

For `COc1ccc(S(=O)(=O)N2CC(=O)N(CCN3CCCCC3)CC2C(=O)NO)cc1.Cl` (centres unmarked) [Example 9, 1-(4-Methoxy-benzenesulfonyl)-5-oxo-4-(2-piperidin-1-yl-ethyl)-piperazine-2-hydroxamate hydrochloride], the “Tube Formation” value in test [4] (concentration 5 μM) is recorded as “−”; in test [4] (concentration 50 μM) it was “±”.

For the molecule `CN(C)CCCN1CC(C(=O)O)N(S(=O)(=O)c2ccc(-c3ccc(Br)cc3)cc2)CC1=O` (centres unmarked) [Example 43, 1-(4′-Bromo-biphenyl-4-sulfonyl)-4-(3-dimethylamino-propyl)-5-oxo-piperazine-2-carboxylic acid], the “Tube Formation” value in test [4] (concentration 0.5 μM) is recorded as “+”; in test [4] (concentration 5 μM), “++”; in test [4] (concentration 50 μM) it was “++”.

As for `O=C(O)C1CN(Cc2ccccc2)C(=O)CN1S(=O)(=O)c1ccc(-c2ccc(Br)cc2)cc1` (centres unmarked) [Example 37, 4-Benzyl-1-(4′-bromo-biphenyl-4-sulfonyl)-5-oxo-piperazine-2-carboxylic acid], the “Tube Formation” value in test [4] (concentration 0.5 μM) is on record as “++”; in test [4] (concentration 5 μM), “++”; in test [4] (concentration 50 μM) it was “+++”.

For the molecule “4-Allyl-1-(4-methoxy-benzenesulfonyl)-5-oxo-piperazine-2-hydroxamate [Example 21]”, the “Tube Formation” value was “±” in test [4] (concentration 5 μM) and “+” in test [4] (concentration 50 μM).

For “1-(4-Methoxy-benzenesulfonyl)-5-oxo-4-prop-2-ynyl-piperazine-2-hydroxamate [Example 23]”, the “Tube Formation” value in test [4] (concentration 5 μM) is reported as “+”; in test [4] (concentration 50 μM), “++”; in test [4] (concentration 100 μM), “+++”.
